Where a SMILES comes first, the peptide text is derived from it. Bridges are numbered along the chain shown (N, C = ends). [ ]: non-standard residue; d: D form. 2Nal = N[C@@H](Cc1ccc2ccccc2c1)C(=O)O; NMeR = CN[C@@H](CCCNC(=N)N)C(=O)O; NMeE = CN[C@@H](CCC(=O)O)C(=O)O; NMeQ = CN[C@@H](CCC(N)=O)C(=O)O; Cha = N[C@@H](CC1CCCCC1)C(=O)O; Cba = N[C@@H](CC1CCC1)C(=O)O; S5 = C=CCCC[C@](C)(N)C(=O)O; βAla = NCCC(=O)O
system: Colo320DM; test: Colo320DM cell viability; assay type: cell-based, human
Description: In some embodiments, a polypeptide described herein inhibits binding of BLC9 to β-catenin when assessed in a cell-viability assay. In some embodiments, the cell-viability assay is a CellTiterGlo luminescent assay, wherein the viability of cells is quantitatively measured. Various cell lines, transformed cell lines or primary cells derived from a healthy subject or subject suffering from a disease can be used in this assay.

Going from `CC[C@H](C)[C@@H]1NC(=O)[C@@](C)(NC(=O)[C@H](CCCNC(=N)N)NC(=O)[C@H](CC(C)C)NC(=O)[C@@H](NC(=O)[C@H](CCC(N)=O)NC(=O)[C@H](CC(C)C)NC(=O)[C@H](CO)NC(=O)[C@H](CCCNC(=N)N)NC(=O)[C@H](CCC(=O)O)NC(=O)[C@H](CCCNC(=N)N)NC(=O)[C@H](Cc2c[nH]cn2)NC(C)=O)[C@@H](C)O)CCCC=CCCC[C@@](C)(C(=O)N[C@@H](CC2CCC2)C(=O)N[C@@H](Cc2ccc3ccccc3c2)C(N)=O)NC(=O)[C@H](C)NC(=O)[C@H](CCC(N)=O)NC1=O` [SEQ ID NO: 29, HRERSLQTLRXIQAX(CBA)(2-Nal)] (Ac-HRERSLQTLR[S5]IQA[S5][Cba][2Nal]-NH2; staple 11-15) to `CC[C@H](C)[C@@H]1NC(=O)[C@@](C)(NC(=O)[C@H](CCCNC(=N)N)NC(=O)[C@H](CC(C)C)NC(=O)[C@@H](NC(=O)[C@H](CCC(N)=O)NC(=O)[C@H](CC(C)C)NC(=O)[C@H](CO)NC(=O)[C@H](CCCNC(=N)N)NC(=O)[C@H](CCC(=O)O)NC(=O)[C@H](CCCNC(=N)N)NC(=O)[C@H](Cc2c[nH]cn2)NC(C)=O)[C@@H](C)O)CCCC=CCCC[C@@](C)(C(=O)N[C@@H](CC2CCC2)C(=O)N[C@@H](Cc2ccc3ccccc3c2)C(N)=O)NC(=O)[C@H](CCC(N)=O)NC(=O)[C@H](CCC(N)=O)NC1=O` [SEQ ID NO: 145, HRERSLQTLRXIQQX(CBA)(2-Nal)] (Ac-HRERSLQTLR[S5]IQQ[S5][Cba][2Nal]-NH2; staple 11-15), the IC50 rises from 2680 nM to greater than 5000 nM. The first is the more potent here.

`CC[C@H](C)[C@@H]1NC(=O)[C@@](C)(NC(=O)[C@H](CCCNC(=N)N)NC(=O)[C@H](CC(C)C)NC(=O)[C@]2(C)CCCC=CCCC[C@](C)(NC(=O)[C@H](CCC(=O)O)NC(=O)[C@H](CCCNC(=N)N)NC(C)=O)C(=O)N[C@@H](CO)C(=O)N[C@@H](CC(C)C)C(=O)N[C@@H](CCC(N)=O)C(=O)N2)CCCC=CCCC[C@@](C)(C(=O)N[C@@H](CC(C)C)C(=O)N[C@@H](Cc2ccc3ccccc3c2)C(N)=O)NC(=O)[C@H](CCCNC(=N)N)NC(=O)[C@H](CCC(N)=O)NC1=O` [SEQ ID NO: 39, REXSLQXLRZIQRZL(2-Nal)] (Ac-RE[S5]SLQ[S5]LR[S5]IQR[S5]L[2Nal]-NH2; staple 3-7, 10-14) and `CC[C@H](C)[C@@H]1NC(=O)[C@@](C)(NC(=O)[C@H](CCCNC(=N)N)NC(=O)[C@H](CC(C)C)NC(=O)[C@]2(C)CCCC=CCCC[C@](C)(NC(=O)[C@H](CCC(=O)O)NC(=O)[C@H](CCCNC(=N)N)NC(C)=O)C(=O)N[C@@H](CO)C(=O)N[C@@H](CC(C)C)C(=O)N[C@@H](CCC(N)=O)C(=O)N2)CCCC=CCCC[C@@](C)(C(=O)N[C@@H](CC(C)C)C(=O)N[C@@H](Cc2ccc3ccccc3c2)C(=O)NCCC(=O)NCCC(N)=O)NC(=O)[C@H](CCCNC(=N)N)NC(=O)[C@H](CCC(N)=O)NC1=O` [SEQ ID NO: 40, REXSLQXLRZIQRZL(2-Nal)(β-Ala)(β-Ala)] (Ac-RE[S5]SLQ[S5]LR[S5]IQR[S5]L[2Nal][βAla][βAla]-NH2; staple 3-7, 10-14) are within 1.5-fold of each other in IC50: 560 nM for the first, 830 nM for the second.

Going from `CC[C@H](C)[C@@H]1NC(=O)[C@@](C)(NC(=O)[C@H](CCCNC(=N)N)NC(=O)[C@H](CC(C)C)NC(=O)[C@]2(C)CCCC=CCCC[C@](C)(NC(=O)[C@H](CCC(=O)O)NC(=O)[C@H](CCCNC(=N)N)NC(=O)[C@@H](N)Cc3c[nH]cn3)C(=O)N[C@@H](CO)C(=O)N[C@@H](CC(C)C)C(=O)N[C@@H](CCC(N)=O)C(=O)N2)CCCC=CCCC[C@@](C)(C(=O)N[C@@H](CC2CCC2)C(=O)N[C@@H](Cc2ccc3ccccc3c2)C(=O)O)NC(=O)[C@H](CCCNC(=N)N)NC(=O)[C@H](CCC(N)=O)NC1=O` [SEQ ID NO: 82, HREXSLQXLRZIQRZ(CBA)(2-Nal)] (H-HRE[S5]SLQ[S5]LR[S5]IQR[S5][Cba][2Nal]-OH; staple 4-8, 11-15) to `CC[C@H](C)[C@@H]1NC(=O)[C@@](C)(NC(=O)[C@H](CCCNC(=N)N)NC(=O)[C@H](CC(C)C)NC(=O)[C@@H](NC(=O)[C@]2(C)CCCC=CCCC[C@](C)(NC(=O)[C@H](CCCNC(=N)N)NC(=O)[C@H](Cc3c[nH]cn3)NC(C)=O)C(=O)N[C@@H](CCCNC(=N)N)C(=O)N[C@@H](CO)C(=O)N[C@@H](CC(C)C)C(=O)N2)[C@@H](C)O)CCCC=CCCC[C@@](C)(C(=O)N[C@@H](CC2CCC2)C(=O)N[C@@H](Cc2ccc3ccccc3c2)C(N)=O)NC(=O)[C@H](CCCNC(=N)N)NC(=O)[C@H](CCC(N)=O)NC1=O` [SEQ ID NO: 94, HRXRSLXTLRZIQRZ(CBA)(2-Nal)] (Ac-HR[S5]RSL[S5]TLR[S5]IQR[S5][Cba][2Nal]-NH2; staple 3-7, 11-15), the IC50 falls from greater than 5000 nM to 3340 nM. The second is the more potent here.

`CC[C@H](C)[C@@H]1NC(=O)[C@@](C)(NC(=O)[C@H](CCCNC(=N)N)NC(=O)[C@H](CC(C)C)NC(=O)[C@]2(C)CCCC=CCCC[C@](C)(NC(=O)[C@H](CCCNC(=N)N)NC(=O)[C@H](CCC(N)=O)NC(=O)[C@H](CCCNC(=N)N)NC(=O)[C@H](Cc3c[nH]cn3)NC(C)=O)C(=O)N[C@@H](CC(C)C)C(=O)N[C@@H](CCC(N)=O)C(=O)N2)CCCC=CCCC[C@@](C)(C(=O)N[C@@H](CC2CCC2)C(=O)N[C@@H](Cc2ccc3ccccc3c2)C(N)=O)NC(=O)[C@H](CCCNC(=N)N)NC(=O)[C@H](CCC(N)=O)NC1=O` [SEQ ID NO: 90, HRQRXLQXLRZIQRZ(CBA)(2-Nal)] (Ac-HRQR[S5]LQ[S5]LR[S5]IQR[S5][Cba][2Nal]-NH2; staple 5-8, 11-15) and `CC[C@H](C)[C@@H]1NC(=O)[C@@](C)(NC(=O)[C@H](CCCNC(=N)N)NC(=O)[C@H](CC2CCCCC2)NC(=O)[C@]2(C)CCCC=CCCC[C@](C)(NC(=O)[C@H](CCCNC(=N)N)NC(=O)[C@H](CCC(N)=O)NC(=O)[C@H](CCCNC(=N)N)NC(=O)[C@H](Cc3c[nH]cn3)NC(C)=O)C(=O)N[C@@H](CC(C)C)C(=O)N[C@@H](CCC(N)=O)C(=O)N2)CCCC=CCCC[C@@](C)(C(=O)N[C@@H](CC2CCCCC2)C(=O)N[C@@H](Cc2ccc3ccccc3c2)C(N)=O)NC(=O)[C@H](CCCNC(=N)N)NC(=O)[C@H](CCC(N)=O)NC1=O` [SEQ ID NO: 92, HRQRXLQX(Cha)RZIQRZ(Cha)(2-Nal)] (Ac-HRQR[S5]LQ[S5][Cha]R[S5]IQR[S5][Cha][2Nal]-NH2; staple 5-8, 11-15) are within 1.5-fold of each other in IC50: 1830 nM for the first, 2540 nM for the second.

`CC[C@H](C)[C@@H]1NC(=O)[C@@](C)(NC(=O)[C@H](CCCNC(=N)N)NC(=O)[C@H](CC(C)C)NC(=O)[C@@H](NC(=O)[C@H](CCC(N)=O)NC(=O)[C@H](CC(C)C)NC(C)=O)[C@@H](C)O)CCCC=CCCC[C@@](C)(C(=O)N[C@@H](CC2CCC2)C(=O)N[C@@H](Cc2ccc3ccccc3c2)C(N)=O)NC(=O)[C@H](CCCNC(=N)N)NC(=O)[C@H](CCC(N)=O)NC1=O` [SEQ ID NO: 107, LQTLRXIQRX(CBA)(2-Nal)] (Ac-LQTLR[S5]IQR[S5][Cba][2Nal]-NH2; staple 6-10) and `CC[C@H](C)[C@@H]1NC(=O)[C@@](C)(NC(=O)[C@H](CCCNC(=N)N)NC(=O)[C@H](CC(C)C)NC(=O)[C@@H](NC(=O)[C@H](CCC(=O)O)NC(=O)[C@H](CC(C)C)NC(C)=O)[C@@H](C)O)CCCC=CCCC[C@@](C)(C(=O)N[C@@H](CC2CCC2)C(=O)N[C@@H](Cc2ccc3ccccc3c2)C(N)=O)NC(=O)[C@H](CCCNC(=N)N)NC(=O)[C@H](CCC(N)=O)NC1=O` [SEQ ID NO: 109, LETLRXIQRX(CBA)(2-Nal)] (Ac-LETLR[S5]IQR[S5][Cba][2Nal]-NH2; staple 6-10) cannot be ordered by IC50: greater than 5000 nM for the first, greater than 5000 nM for the second.

`CC[C@H](C)[C@@H]1NC(=O)[C@@](C)(NC(=O)[C@H](CCCNC(=N)N)NC(=O)[C@H](CC(C)C)NC(=O)[C@@H](NC(=O)[C@H](CCC(N)=O)NC(=O)[C@H](CC(C)C)NC(=O)[C@H](CO)NC(=O)[C@H](CCCNC(=N)N)NC(=O)[C@H](CCC(=O)O)N(C)C(=O)[C@H](CCCNC(=N)N)NC(=O)[C@H](Cc2c[nH]cn2)NC(C)=O)[C@@H](C)O)CCCC=CCCC[C@@](C)(C(=O)N[C@@H](CC2CCC2)C(=O)N[C@@H](Cc2ccc3ccccc3c2)C(N)=O)NC(=O)[C@H](CCCNC(=N)N)NC(=O)[C@H](CCC(N)=O)NC1=O` [SEQ ID NO: 151, HR(N-methylE)RSLQTLRXIQRX(CBA)(2-Nal)] (Ac-HR[NMeE]RSLQTLR[S5]IQR[S5][Cba][2Nal]-NH2; staple 11-15) and `CC[C@H](C)[C@@H]1NC(=O)[C@@](C)(NC(=O)[C@H](CCCNC(=N)N)NC(=O)[C@H](CC(C)C)NC(=O)[C@@H](NC(=O)[C@H](CCC(N)=O)N(C)C(=O)[C@H](CC(C)C)NC(=O)[C@H](CO)NC(=O)[C@H](CCCNC(=N)N)NC(=O)[C@H](CCC(N)=O)NC(=O)[C@H](CCCNC(=N)N)NC(=O)[C@H](Cc2c[nH]cn2)NC(C)=O)[C@@H](C)O)CCCC=CCCC[C@@](C)(C(=O)N[C@@H](CC2CCC2)C(=O)N[C@@H](Cc2ccc3ccccc3c2)C(N)=O)NC(=O)[C@H](CCCNC(=N)N)NC(=O)[C@H](CCC(N)=O)NC1=O` [SEQ ID NO: 153, HRQRSL(N-methylQ)TLRXIQRX(CBA)(2-Nal)] (Ac-HRQRSL[NMeQ]TLR[S5]IQR[S5][Cba][2Nal]-NH2; staple 11-15; N-terminus and C-terminus assumed) are within 1.5-fold of each other in IC50: 3100 nM for the first, 2560 nM for the second.

Work on `CC[C@H](C)[C@@H]1NC(=O)[C@@](C)(NC(=O)[C@H](CCCNC(=N)N)N(C)C(=O)[C@H](CC(C)C)NC(=O)[C@@H](NC(=O)[C@H](CCC(N)=O)NC(=O)[C@H](CC(C)C)NC(=O)[C@H](CO)NC(=O)[C@H](CCCNC(=N)N)NC(=O)[C@H](CCC(=O)O)NC(=O)[C@H](CCCNC(=N)N)NC(=O)[C@H](Cc2c[nH]cn2)NC(C)=O)[C@@H](C)O)CCCC=CCCC[C@@](C)(C(=O)N[C@@H](CC2CCC2)C(=O)N[C@@H](Cc2ccc3ccccc3c2)C(=O)O)NC(=O)[C@H](CCCNC(=N)N)NC(=O)[C@H](CCC(N)=O)NC1=O` [SEQ ID NO: 152, HRERSLQTL(N-methylR)XIQRX(CBA)(2-Nal)] (Ac-HRERSLQTL[NMeR][S5]IQR[S5][Cba][2Nal]-OH; staple 11-15) yielded an IC50 greater than 5000 nM.

Source: patent US11591365B2, “BCL9 peptides and variants thereof” (WntRx Pharmaceuticals Inc., priority 2017, dated 2023)
